This test has as its system Hh-signalling cascade. Put plainly: Inhibition of SHh-induced alkaline phosphatase in C3H10T1/2 cells (Hh-signalling cascade inhibition). Conditions: Mus musculus, C3H 10T1/2, half maximal inhibition of SHh (0.3 μg/ml) stimulation of cell alkaline phosphatase. In kind it is cell-based. From the text: C3H10T1/2 Cells were used for identification of inhibitors of SHh-protein signaling cascade. SHh-protein activates C3H10T1/2 cells, that leads to their osteogenic differentiation [1) Kinto N., Iwamoto M., Enomoto-Iwamoto M., Noji S., Ohuchi H., Yoshioka H., Kataoka H., Wada Y., Yuhao G., Takahashi H. E., Yoshiki S., Yamaguchi A. Fibroblasts expressing Sonic hedgehog induce osteoblast differentiation and ectopic bone formation. FEBS Lett. 1997; 404(2-3): 319-23. 2) Spinella-Jaegle S., Rawadi G., Kawai S., Gallea S., Faucheu C., Mollat P., Courtois B., Bergaud B., Ramez V., Blanchet A. M., Adelmant G., Baron R., Roman-Roman S. Sonic hedgehog increases the commitment of pluripotent mesenchymal cells into the osteoblastic lineage and abolishes adipocytic differentiation. J. Cell Sci. 2001; 114(Pt 11): 2085-94] and, in particular, to expression enhancement of alkaline phosphatase enzyme.
The cells were cultivated in DMEM medium with 10% embryonal calfish serum in incubator at 37° C., 100% humidity and 5% CO2 content. The cells were placed in 384-well plates and left for night. On the next day the tested compounds in concentration of 10 μM were added to the cells, incubated for 30 min, then recombinant (R & D Systems, USA) SHh protein in concentration of 0.3 μg/ml was added and incubation was continued for 3 days. Cells with DMSO instead of a test compound and cells without SHh protein were used as test control. For determination of the cell alkaline phosphatase activity the cells were lysed in the buffer containing 0.2% Triton-X100, lisates were incubated together with proluminescent substrate CSPD (Applied Biosystems, USA) and the resultant luminescence was measured using reader VICTOR^2V (PerkinElmer, USA).
The ability of the compounds to inhibit Hh-signalling cascade was determined using C3H10T1/2 cells in 384-well plates as described in example 1. The compounds were added in triplicates in various concentrations, prepared by multiple dilution of starting solutions (concentration dependences of cell alkaline phosphatase inhibition induced by the addition of tested compounds are shown in FIG. 1). Activity of the compounds was characterized by their concentrations produced half maximal inhibition of stimulation of cell alkaline phosphatase SHh (IC50).
As a reminder, the IC50 is the concentration that gives 50% inhibition. As to `Cc1nn(C(C)C(=O)N2CCN(c3ccccc3F)CC2)c(=O)c2nn(-c3ccccc3)c(C)c12` (stereo not drawn) [I-1013, 2-Phenyl-3,4-dimethyl-6-{1-methyl-2-[4-(2-fluorophenyl)piperazin-1-yl]-2-oxoethyl}-2,6-dihydro-7H-pyrazolo[3,4-d]pyridazin-7-one], the concentration for half-maximal inhibition (IC50) was below 0.5 µM.
Take `Cc1ccc(-n2nc3c(=O)n(CC(=O)Nc4ccccc4F)nc(C)c3c2C)c(C)c1` [I-1014, 2-[2-(2,4-dimethylphenyl)-3,4-dimethyl-7-oxo-2,7-dihydro-6H-pyrazolo[3,4-c]pyridazin-6-yl]-N-(2-fluorophenyl)acetamide]: the IC50 is below 5 µM.
For `CCC(C(=O)N1CCOCC1)n1nc(C)c2c(C)n(-c3ccccc3)nc2c1=O` (stereo not drawn) [I-1015, 2-Phenyl-3,4-dimethyl-6-[1-(morpholin-4-ylcarbonyl)propyl]-2,6-dihydro-7H-pyrazolo[3,4-c]pyridazin-7-one] the value was below 5 µM.
The same measure for `Cc1ccc(-n2nc3c(=O)n(CC(=O)NCc4ccc(C)o4)nc(C)c3c2C)cc1` [I-1016, 2-[2-(4-Methylphenyl)-3,4-dimethyl-7-oxo-2,7-dihydro-6H-pyrazolo[3,4-d]pyridazin-6-yl]-N-[(5-methylfuran-2-yl)methyl]acetamide]: below 5 µM.
The same measure for `Cc1ccc(-n2nc3c(=O)n(C(C)C(=O)NCCc4cccs4)nc(C)c3c2C)cc1` (stereo not drawn) [I-1017, 2-[2-(4-Methylphenyl)-3,4-dimethyl-7-oxo-2,7-dihydro-6H-pyrazolo[3,4-d]pyridazin-6-yl)-N-[2-(thien-2-yl)ethyl]propanamide]: below 5 µM; for `CCC(C(=O)NC1CC1)n1nc(C)c2c(C)n(-c3ccc(C)cc3)nc2c1=O` (stereo not drawn) [I-1018, 2-[2-(4-Methylphenyl)-3,4-dimethyl-7-oxo-2,7-dihydro-6H-pyrazolo[3,4-c]pyridazin-6-yl]-N-(cyclopropyl)butanamide]: below 5 µM; for `Cc1nn(CCC(=O)NCc2cccnc2)c(=O)c2nn(-c3ccccc3)c(C)c12` [I-1019, 3-(2-Phenyl-3,4-dimethyl-7-oxo-2,7-dihydro-6H-pyrazolo[3,4-c]pyridazin-6-yl)-N-(pyridin-3-ylmethyl)propanamide]: below 5 µM.
`Cc1nn(CCC(=O)NCc2ccco2)c(=O)c2nn(-c3ccccc3)c(C)c12` [I-1020, 3-(2-Phenyl-3,4-dimethyl-7-oxo-2,7-dihydro-6H-pyrazolo[3,4-c]pyridazin-6-yl)-N-(furan-2-ylmethyl)propanamide] had an IC50 below 5 µM.
`Cc1nn(CCC(=O)N2CCOCC2)c(=O)c2nn(-c3ccccc3)c(C)c12` [I-1021, 2-Phenyl-3,4-dimethyl-6-(3-(morpholin-4-yl)-3-oxopropyl)-2,6-dihydro-7H-pyrazolo[3,4-c]pyridazin-7-one] came in with a concentration for half-maximal inhibition (IC50) below 5 µM.
For `Cc1nn(CCC(=O)NCc2cccs2)c(=O)c2nn(-c3ccccc3)c(C)c12` [I-1022, 3-(2-Phenyl-3,4-dimethyl-7-oxo-2,7-dihydro-6H-pyrazolo[3,4-c]pyridazin-6-yl)-N-(thien-2-ylmethyl)propanamide] the value was below 5 µM; for `Cc1ccc(-n2nc3c(=O)n(CCCC(=O)NCCc4ccco4)nc(C)c3c2C)cc1` [I-1023, 4-[2-(4-Methylphenyl)-3,4-dimethyl-oxo-2,7-dihydro-6H-pyrazolo[3,4-d]pyridazin-6-yl]-N-[2-(furan-2-yl)ethyl]butanamide], below 50 µM.
The same measure for `CCN1CCN(C(=O)CCCn2nc(C)c3c(C)n(-c4ccc(C)cc4)nc3c2=O)CC1` [I-1024, 2-(4-Methylphenyl)-3,4-dimethyl-6-[4-(4-ethylpiperazin-1-yl)-4-oxobutyl]-2,6-dihydro-7H-pyrazolo[3,4-c]pyridazin-7-one]: below 50 µM.
For `Cc1nn(CCCC(=O)N2CCOCC2)c(=O)c2nn(-c3ccccc3)c(C)c12` [I-1025, 2-Phenyl-3,4-dimethyl-6-[4-(morpholin-4-yl)-4-oxobutyl]-2,6-dihydro-2H-pyrazolo[3,4-c]pyridazin-7-one] the value was below 50 µM.
Turning to `Cc1nn(CCCC(=O)Nc2ccc(C(C)C)cc2)c(=O)c2nn(-c3ccccc3)c(C)c12` [I-1026, 4-(2-Phenyl-3,4-dimethyl-7-oxo-2,7-dihydro-6H-pyrazolo[3,4-d]pyridazin-6-yl)-N-[(1-methylethyl)phenyl]butanamide], the IC50 is below 50 µM.
For `Cc1cccc(N2CCN(C(=O)CN3C(=O)CSc4c3c(C)nn4-c3ccccc3)CC2C)c1` (stereo not drawn) [II-1001, 3-Methyl-4-[2-(3-methyl-4-m-tolylpiperazin-1-yl)-2-oxoethyl]-1-phenyl-1,4-dihydro-pyrazolo[3,4-b][1,4]thiazin-5-one] the value was below 0.5 µM; for `Cc1nn(-c2ccccc2)c2c1N(CC(=O)Nc1cccc(C(F)(F)F)c1)C(=O)CS2` [II-1002, 2-(3-Methyl-5-oxo-1-phenyl-5,6-dihydro-1H-pyrazolo[3,4-b][1,4]thiazin-4-yl)-N-(3-trifluoromethylphenyl)acetamide], below 0.5 µM.
`Cc1nn(-c2ccccc2)c2c1N(CC(=O)NCc1ccccn1)C(=O)CS2` [II-1003, 2-(3-Methyl-5-oxo-1-phenyl-5,6-dihydro-1H-pyrazolo[3,4-b][1,4]thiazin-4-yl)-N-(pyridin-2-ylmethyl)acetamide] had an IC50 below 5 µM.
For `COc1ccc(CCNC(=O)CN2C(=O)CSc3c2c(C)nn3-c2ccccc2)cc1OC` [II-1005, N-[2-(3,4-Dimethoxyphenyl)ethyl]-2-(3-methyl-5-oxo-1-phenyl-5,6-dihydro-1H-pyrazolo[3,4-b][1,4]thiazin-4-yl)acetamide] the value was below 50 µM; for `COc1ccc(CNC(=O)CN2C(=O)CSc3c2c(C)nn3-c2ccccc2)cc1` [II-1007, N-(4-Methoxybenzyl)-2-(3-methyl-5-oxo-1-phenyl-5,6-dihydro-1H-pyrazolo[3,4-b][1,4]thiazin-4-yl)acetamide], below 50 µM; for `Cc1nn(-c2ccccc2)c2c1N(CC(=O)NC(C)C)C(=O)CS2` [II-1008, N-Isopropyl-2-(3-methyl-5-oxo-1-phenyl-5,6-dihydro-1H-pyrazolo[3,4-b][1,4]thiazin-4-yl)acetamide], above 50 µM.
`Cc1nn(-c2ccccc2)c2c1N(CC(=O)NCCN1CCOCC1)C(=O)CS2` [II-1010, 2-(3-Methyl-5-oxo-1-phenyl-5,6-dihydro-1H-pyrazolo[3,4-b][1,4]thiazin-4-yl)-N-(2-morpholin-4-yl)ethylacetamide] came in with a half-maximal inhibitory concentration (IC50) above 50 µM.
For `CNC(=O)CN1C(=O)CSc2c1c(C)nn2-c1ccccc1` [II-1011, N-Methyl-2-(3-methyl-5-oxo-1-phenyl-5,6-dihydro-1H-pyrazolo[3,4-b][1,4]thiazin-4-yl)acetamide] the value was above 50 µM.
For `Cc1nn(-c2ccccc2)c2c1N(CC(=O)N1CCN(c3ccc(Cl)cc3)CC1)C(=O)CS2` [II-1012, 4-{2-[4-(4-Chlorophenyl)piperazin-1-yl]-2-oxoethyl}-3-methyl-1-phenyl-1,4-dihydropyrazolo[3,4-b][1,4]thiazin-5-one] the value was below 0.5 µM.
For `Cc1nn(-c2ccccc2)c2c1N(CC(=O)N1CCCC1)C(=O)CS2` [II-1013, 3-Methyl-4-[2-oxo-2-(pyrrolidin-1-yl)ethyl]-1-phenyl-1,4-dihydropyrazolo[3,4-b][1,4]thiazin-5-one] the value was above 50 µM; for `Cc1nn(-c2ccccc2)c2c1N(CCCC(=O)N1CCN(c3ccccc3)CC1)C(=O)CS2` [II-1023, 3-Methyl-4-[4-oxo-4-(4-phenylpiperazin-1-yl)butyl]-1-phenyl-1,4-dihydropyrazolo[3,4-b][1,4]thiazin-5-one], below 0.5 µM; for `Cc1nn(-c2ccccc2)c2c1N(CCCC(=O)N1CCN(c3ccccn3)CC1)C(=O)CS2` [II-1025, 3-Methyl-4-[4-oxo-4-((4-pyridin-2-yl)piperazin-1-yl)butyl]-1-phenyl-1,4-dihydropyrazolo[3,4-b][1,4]thiazin-5-one], below 0.5 µM.
The molecule `COc1ccc(NC(=O)CCCN2C(=O)CSc3c2c(C)nn3-c2ccccc2)cc1` [II-1026, N-(4-Methoxyphenyl)-4-(3-methyl-5-oxo-1-phenyl-5,6-dihydro-1H-pyrazolo[3,4-b][1,4]thiazin-4-yl)butyramide] had a 50% inhibitory concentration (IC50) below 50 µM.
For `COc1cccc(C(=O)Nc2ccc(-c3cn4ccccc4n3)cc2)c1` [III-1001, N-(4-(Imidazo[1,2-a]pyridin-2-yl)phenyl)-3-methoxybenzamide] the value was below 0.5 µM; for `CCC(=O)Nc1ccc(-c2cn3ccccc3n2)cc1` [III-1002, N-(4-(Imidazo[1,2-a]pyridin-2-yl)phenyl)propionamide], below 50 µM.
The same measure for `O=C(Nc1ccc(-c2cn3ccccc3n2)cc1)c1ccncc1` [III-1003, N-(4-(Imidazo[1,2-a]pyridin-2-yl)phenyl)isonicotinamide]: below 0.5 µM.
